Values joined by “and” are separate entries in the source; they are usually repeats but may differ in a detail not shown here. Equal entries are not always repeated. Where two headings read alike, the source gives them in different places.
How the values were obtained:
[1] = system: Aedes aegypti; assay: Skin test of mosquito repellency (bites on treated skin); type: in vivo
Protocol: In order to exactly confirm mosquito repellent activity, the compounds containing repellent activity were further examined by a skin test directly against skin. The cage was covered with a 35×35×35 cm mail net structure. Tests were conducted against nulliparous females 7–10 days old. Both compounds, in 100 μl of ethanol, were applied to a rubber glove surface with a 50 mm diameter hole punched on the hand. After drying in the air for 1 minute, skin was exposed for 5 minutes in a cage containing 60 mosquitoes. Repellent activity was measured by the number of mosquitoes biting the skin. The control treated only with 95% ethanol was also exposed to mosquitoes in the same manner. The degree of repellency was expressed in terms of percent repellency calculated according to the following Equation 2. [formula]

[2] = system: Aedes aegypti; assay: Patch test of mosquito repellency (landings on treated gauze); type: in vivo; details: for Mosquito repellency of chromatography fractions (active / inert): patch test of Test 1, fractions of the hexane portion
Excerpt: Aedes aegypti were used in the tests of mosquito repellency in the experiments of the present invention. They were provided from the National Institute of Health in Korea and were selected from indoor breeding insects that were not exposed to insecticides or other drugs. Larvae were reared in 30×35×10 cm cages. […] The pupae were transferred to a paper-cup using a spoide and then the paper-cup was moved to a cage being a structure (35×35×35 cm) made from wire. […] For patch test, 35×35×35 cm screen wire cage were used. Tests were conducted on nulliparous females 7-10 days old. The methanol extract and 4 types of portions prepared in the Example 1 and 100 μl of ethanol were applied to a piece of gauze (50 mm-diameter). After drying in the air for 2 minutes, the gauze was put on a rubber glove with a 50 mm-diameter hole punched in it and it was exposed in a cage (35×35×35 cm containing 60 mosquitoes). Because the gauze on the rubber glove was 5 mm away from the skin, mosquitoes would probe through the gauze in an attempt to feed but could not reach the back of the hand. Repellent activity was measured by the number of mosquitoes landing on the gauze for 5 minutes. An untreated gauze (95% ethanol only) was also exposed to mosquitoes in the same manner and considered as a control. The degree of repellency was expressed in terms of percent repellency calculated according to the following equation. [formula] Also, in order to identify mosquito repelling activity, it was compared with synthetic repellent DEET by recording the number of landings.

[3] = skin treated with 300 ug/cm^2 DEET, cited from earlier work
[4] = system: rat; details: epidermal; cited from earlier work
[5] = system: rat; details: oral administration; cited from earlier work
[6] = patch test, dose 0.004 mg/cm^2 (so in the source)

| Molecule | Repellency (average ± standard deviation, %) ([1]; dose 0.04 mg/cm^2) | Repellency (average ± standard deviation, %) ([1]; dose 0.1 mg/cm^2) | Repellency (average ± standard deviation, %) ([1]; dose 0.2 mg/cm^2) | Repellency (average ± standard deviation, %) ([1]; dose 0.4 mg/cm^2) | Repellency (average ± standard deviation, %) [2, 6] [a %] | Repellency (average ± standard deviation, %) ([2]; patch test, dose 0.005 mg/cm^2) | Repellency (average ± standard deviation, %) ([2]; patch test, dose 0.01 mg/cm^2) [b %] | Repellency (average ± standard deviation, %) ([2]; patch test, dose 0.02 mg/cm^2) [a %] | Repellency (%) ([2]; patch test, dose 0.1 mg/cm^2, A. aegypti females, 5 min exposure) | skin penetration ratio ([3]; after 1 hour) [%] | skin penetration ratio ([3]; after 12 hours) [%] | LD50 [4] | LD50 [5] | Mosquito repellency of chromatography fractions (active / inert) [2] | Repellency (average ± standard deviation, %) ([1]; dose 0.4 mg/cm^2, listed as fenchone) | Repellency (average ± standard deviation, %) ([2]; patch test, dose 0.005 mg/cm^2, listed as fenchone) [%] | Repellency (average ± standard deviation, %) ([2]; patch test, dose 0.01 mg/cm^2, listed as fenchone) |
| --- | --- | --- | --- | --- | --- | --- | --- | --- | --- | --- | --- | --- | --- | --- | --- | --- | --- |
| CCN(CC)C(=O)c1cccc(C)c1 [DEET, N,N-diethyl-m-toluamide, reference compound] | 98.4 ± 0.5b % | 100a % | 100a % | 100a % | 100 | 84.6% and 84.6 ± 1.3c % | 96.4 ± 0.5 | 100 | > 80 | 30 | 36 | – | – | – | – | – | – |
| CC1CCC(C(C)(C)O)C(O)C1 (stereo not shown) [PMD, p-menthan-3,8-diol] | – | – | – | – | – | – | – | – | – | – | – | > 2,000 mg/kg | 2,408 mg/kg | – | – | – | – |
| (+)-fenchone | – | – | – | – | – | – | – | – | – | – | – | – | – | potent active principles | – | – | – |
| CC1(C)C(=O)[C@@]2(C)CC[C@@H]1C2 [Fenchone, (+)-fenchone] | 76.2 ± 0.2c % | 91.7 ± 0.9b % | 100a % | 100a % | 100 | 82.1 ± 0.7c % | 93.9 ± 0.6 | 100 | – | – | – | – | – | – | perfect repellent activity | 82.1 | potent repellency comparable with that of DEET |
| CCCCCCCC/C=C/CCCCCCCC(=O)O [E-9-octadecenoic acid] | – | – | 52.3 ± 0.9% | 80.4% and 80.4 ± 0.2% | 100 | 73.4% and 73.4 ± 2.3c % | – | 98.6 ± 0.9 | – | – | – | – | – | potent active principles | – | – | – |
